Data published in patent US12691156B2, “Prebiotic compositions and method for promoting growth of Hafnia alvei by using the same” (TCI CO., LTD., priority 2022, dated 2026).

Test system: Hafnia alvei BCRC10906
Experiment: Influence of prebiotic compositions in different combinations on Hafnia alvei growth (OD600, Embodiment 4)
Format: cell-based
Details: for ability to promote the growth of Hafnia alvei (in words) / Relative bacterial count (%): 1 g formula in 10 mL BHI, 24 hours; for Absorbance (OD600): 10 mL BHI medium containing 1 g formula, anaerobic culture 37° C. 24 hours, control group 0.078 ± 0.039; for Relative bacterial count (%): converted from OD600, control group = 100 ± 50
Text: The groups were divided into a control group and 11 experimental groups. The experimental groups included 6 single-formula experimental groups and 5 complex-formula experimental groups, namely a single-formula experimental group to a single-formula experimental group, and a complex-formula experimental group to a complex-formula experimental group. The adopted liquid medium was a brain heart infusion broth (BHI, hereinafter referred to as the BHI medium, and purchased from DifcoTM). The adopted test strains were Hafnia alvei BCRC10906 purchased from Bioresource Collection and Research Center (BCRC). Each group is shown as Table 5. Control group: No prebiotics were added, and the experimental medium was 10 ml of the BHI medium. 6 single-formula experimental groups: A single-formula experimental group containing erythritol (purchased from SWEET TOWN ENTERPRISE CORP.), a single-formula experimental group containing arabinose (purchased from […] Co., Ltd.), a single-formula experimental group containing Arabic gum (purchased from Buildmore Enterprise Co., Ltd.), a single-formula experimental group containing fructooligosaccharide (purchased from Panel Japan Co., Ltd.), a single-formula experimental group containing soybean peptide powder (purchased from FUJI OIL Co. Ltd.), and a single-formula experimental group containing the black tea ferment prepared in Embodiment 1. The experimental medium of each group was 10 ml of the BHI medium containing 1 g of prebiotics (namely, erythritol, arabinose, Arabic gum, fructooligosaccharide, soybean peptide powder, the black tea ferment prepared in Embodiment 1. The 6 single-formula experimental groups were also called single-ingredient formulas to [6]). 5 complex-formula experimental groups: A complex-formula experimental group containing the black tea ferment prepared in Embodiment 1 and the soybean peptide powder; a complex-formula experimental group containing the black tea ferment prepared in Embodiment 1, the soybean peptide powder and erythritol; a complex-formula experimental group containing the black tea ferment prepared in Embodiment 1, the soybean peptide powder and fructooligosaccharide; a complex-formula experimental group containing the black tea ferment prepared in Embodiment 1, the soybean peptide powder and arabinose; and a complex-formula experimental group containing the black tea ferment prepared in Embodiment 1, the soybean peptide powder and Arabic gum. The weight ratio of the prebiotic compositions of the complex-formula experimental groups was 1:1 or 1:1:1. The experimental medium of each group was 10 ml of the BHI medium containing 1 g of prebiotic composition (namely, a combination of 0.5 g of the black tea ferment prepared in Embodiment 1 and 0.5 g of the soybean peptide powder, a combination of about 0.33 g of the black tea ferment prepared in Embodiment 1, about 0.33 g of the soybean peptide powder and about 0.33 g of erythritol, a combination of about 0.33 g of the black tea ferment prepared in Embodiment 1, about 0.33 g of the soybean peptide powder and about 0.33 g of fructooligosaccharide , a combination of about 0.33 g of the black tea ferment prepared in Embodiment 1, about 0.33 g of the soybean peptide powder and about 0.33 g of arabinose, and a combination of about 0.33 g of the black tea ferment prepared in Embodiment 1, about 0.33 g of the soybean peptide powder and about 0.33 g of Arabic gum; and the 5 complex-formula experimental groups are also referred to as complex-ingredient formulas to [5]). [table] Firstly, 5% (v/v) of Hafnia alvei was inoculated to the BHI medium, and activated in an anaerobic operation box (5% of hydrogen, 10% of carbon dioxide and 85% of nitrogen) at 37° C. for 24 hours to obtain an experimental bacterial solution. […]

| Structure (SMILES) | ability to promote the growth of Hafnia alvei (in words) | Absorbance (OD600) | Absorbance (OD600) (listed as single-formula experimental group [1]) | Relative bacterial count (%) | Absorbance (OD600) (listed as single-formula experimental group [2]) |
| --- | --- | --- | --- | --- | --- |
| OC[C@@H](O)[C@@H](O)CO [Single-formula experimental group [1], Erythritol] | promoted the growth of Hafnia alvei | 0.169 ± 0.026 | 0.169±0.026 | 217 ± 34% |  |
| O=C[C@@H](O)[C@H](O)[C@H](O)CO [Single-formula experimental group [2], Arabinose] | promoted the growth of Hafnia alvei | 0.176 ± 0.038 |  | 226 ± 49% | 0.176±0.038 |
